In patent publication US7339042B2, “Gene delivery to tumors” (University of Florida Research Foundation, Inc., priority 2003, dated 2008):

What was measured:
[1] = tested on: T98G cells, RG2 cells and A172 cells; assay: Cell viability assay of chimeric peptides in three cell types; format: cell-based, human and rat; details: fixed concentration, 30-minute incubation
Experimental: Synthetic peptides labeled with an N-terminal fluorescein were synthesized to test the ability of a shuttle domain to enter brain tumor and endothelial cells. The amino acid sequences for the shuttle domain was derived from HIV Tat amino acid 47 to 56 ([…] SEQ ID NO:23)(Robert-Guroff et al., J. Virol. 64:3391-3398, 1990) to which AGGG was added to the N-terminus, and the antennapedia homeodomain from drosophila (ANT) ([…] SEQ ID NO:24) (Astriab-Fisher et al., Pharm. Res., 19:744-754, 2002). A synthetic peptide (PTD-5) reported to have similar properties as Tat and ANT was also tested (Mai J. C. et al, Cancer Res. 2001; 61: 7709-7712.). Uptake was tested in two human glioblastoma cell lines and a rat glioma cell line, the latter being used for the rat brain tumor model. A 1 μM concentration of each peptide was added to 10^6 cells in a 6 well plate. […] The Tat and ANT peptides were doubled in length by the addition of […] (SEQ ID NO: 25), amino acids 42 to 55 from a human cyclin-dependent kinase inhibitor 2A (melanoma, p16, inhibits CDK4) (CDKI), transcript variant 4, mRNA (accession no. NM_058195). […]
The cytotoxicity of the chimeric peptides was characterized using a cell viability assay. […] After a 30-minute incubation, cells were removed from the plate, stained with propidium iodide and the % positive cells were determined by FACS (fluorescent activated cell scanning). […]

[2] = tested on: two human glioblastoma cell lines and a rat glioma cell line; assay: Fluorescein peptide uptake, fluorescence microscopy, three glioma lines; format: cell-based; details: 1 μM peptide, 10^6 cells, all three cell types
Experimental: Synthetic peptides labeled with an N-terminal fluorescein were synthesized to test the ability of a shuttle domain to enter brain tumor and endothelial cells. The amino acid sequences for the shuttle domain was derived from HIV Tat amino acid 47 to 56 ([…] SEQ ID NO:23)(Robert-Guroff et al., J. Virol. 64:3391-3398, 1990) to which AGGG was added to the N-terminus, and the antennapedia homeodomain from drosophila (ANT) ([…] SEQ ID NO:24) (Astriab-Fisher et al., Pharm. Res., 19:744-754, 2002). A synthetic peptide (PTD-5) reported to have similar properties as Tat and ANT was also tested (Mai J. C. et al, Cancer Res. 2001; 61: 7709-7712.). Uptake was tested in two human glioblastoma cell lines and a rat glioma cell line, the latter being used for the rat brain tumor model. A 1 μM concentration of each peptide was added to 10^6 cells in a 6 well plate. […] The Tat and ANT peptides were doubled in length by the addition of […] (SEQ ID NO: 25), amino acids 42 to 55 from a human cyclin-dependent kinase inhibitor 2A (melanoma, p16, inhibits CDK4) (CDKI), transcript variant 4, mRNA (accession no. NM_058195). This domain binds MDM2 and inhibit ubiquination of P53, a tumor suppressor protein. […] Only the combination of Tat-CDKI was toxic to the cells, 65% killing for T98G and 61% killing for RG2 cells. […] Similar results were obtained with A172 cells. […]

RG2 cells = assay: Kinetic uptake studies of fluorescent peptides; format: cell-based, rat
Experimental: A172 cells, T98G cells and RG2 cells were purchased from ATCC. Cells were cultured under standard conditions. For cell uptake studies, each cell type was plated in 6 well plates at 5×10^5 cells per well 24 hours before the experiment. Increasing concentration of fluorescent peptides from 0.5 μM to 10 μM was prepared in complete medium. Cells were incubated with each concentration for 5, 10, 20 and 30 minutes at 37° C. followed by removal and washing of cells with 4° C. PBS 3×. Cells were solubilized in 0.2 ml 1% TX-100, PBS, pH 7.4. Fluorescence was measured using a fluorescent plate reader. Concentrations were determined by standard curve and normalized to μg of cellular protein.
A172, T98G and RG2 cells were plated in 6 well plates and incubated with 1, 2.5, 5 and 10 uM fluorescein labeled peptides for 5, 15, 30 and 60 minutes. Cells were washed 3× with PBS, removed from the plates with trypsin, centrifuged for 2 minutes at 2K rpm in a desk top centrifuge, supernatants discarded and the cell pellets were solubilized in 1% TX-100, PBS, pH 7.4. Fluorescence was measured in a Perkin Elmer fluorimeter using ˜ex=480 nm and ˜em=520 nm with a 510 nm cut off filter. Amount of cell-associated protein was determined from the standard curve.
This peptide was further characterized with regard to dose response. […]

rat cerebral arteries [3] = assay: Vasodilation and vasoconstriction response of rat cerebral arteries before and after peptide; format: cell-based; details: after vs before intraluminal peptide
Experimental: The blood vessels were put in culture described above and perfused with buffer of the same composition as cerebrospinal fluid. Vessel diameter was measured before and after administration of each reagent. 3 μM of each peptide was perfused through for 10 minutes followed by a 10 minute wash through. Vasoconstriction and vasodilation were determined for each vessel before peptide was applied. Perfusion was continued until the vessels relaxed to their original diamter (approximately 30 minutes). The vasoconstriction and vasodilation reponse was remeasured after the 10 minute wash through. The 60 mM KCl and 16 mM KCl conditions are […], respectively. Histamine and Bradykinin are endothelial cell vasodilators.
In some experiments, the arterial segments were denuded of endothelium by passing an air bubble through the lumen, thus exposing the smooth muscle cells to luminally administered peptides. Constriction to pressure and 60 mM KCl and dilation of arteries with myogenic tone to 16 mM KCl were used as benchmarks of functional arteries. Peptide containing PCSF was perfused intraluminally at an inlet pressure of 70 mmHg with the outlet open, for 20 min and then perfused with normal PCSF. This procedure ensures a 20 min of exposure of the arteries to the peptide.
(§1) Effect of peptide on endothelial and smooth muscle function was evaluated by histamine (0.3 and 1 μM) and bradykinin (0.5 μM) (endothelium-dependent vasodilators) and 16 and 60 mM KCl (results in dilation and constriction of arteries by hyperpolarizing and depolarizing smooth muscle, respectively). These drug solutions were added to the superfusate and applied to the arteries extraluminally for 10 to 15 min before and after intraluminal perfusion with peptides. Effects of these agents were expressed as percent change in myogenic tone (decrease for dilators and increase for constrictors). Experiments were concluded by exposing the arteries to calcium free PCSF to obtain the passive diameter. Cell viability was determined by adding H3334 (Hoechst viability stain, final concentration 1 μM) and propidium iodide (final concentration 1 μM) to the arteriograph after the peptide incubation. Fluorescent micrographs were taken of the vessels after incubation with peptides and following addition of the vital stains using Till Photonics imaging system (Martinsried, Germany).

rat cerebral arteries [4] = assay: Cell viability staining of arteries (propidium iodide, H3334) after peptide; format: cell-based; details: after treatment with peptide
Experimental: No PI statined smooth muscle cell nuclei were observed.
as §1

[5] = tested on: endothelial cells and smooth muscle cells of rat cerebral arteries; assay: Uptake of fluorescent peptides by pressure-mounted rat cerebral arteries; format: cell-based; details: extraluminal addition

Which cells killed [1] does the source give for C[C@H](N)C(=O)NCC(=O)NCC(=O)NCC(=O)N[C@@H](Cc1ccc(O)cc1)C(=O)NCC(=O)N[C@@H](CCCNC(=N)N)C(=O)N[C@@H](CCCCN)C(=O)N[C@@H](CCCCN)C(=O)N[C@@H](CCCNC(=N)N)C(=O)N[C@@H](CCCNC(=N)N)C(=O)N[C@@H](CCC(N)=O)C(=O)N[C@@H](CCCNC(=N)N)C(=O)N[C@@H](CCCNC(=N)N)C(=O)N[C@@H](CCCNC(=N)N)C(=O)O [Tat] here?
The cells killed was “No impact on cell viability”.

What about the “fluorescence labeling of cells (uptake)” value [2] of the same compound?
Its value is “preferentially labeled the cell nuclei”.

What about the uptake rate (RG2 cells) of the same compound?
The uptake rate was “more rapid uptake than TatP14ARF”.

What about the “endothelium-dependent dilation to histamine and bradykinin” value (rat cerebral arteries [3]) of the same compound?
The value was “responsive to all stimuli”.

And the “smooth muscle response to 60 and 16 mM KCl” value (rat cerebral arteries [3])?
The value was “responsive to all stimuli”.

And the “propidium iodide staining of blood vessels” value (rat cerebral arteries [4])?
Its value is “no PI stained nuclei”.

And the “labeling of smooth muscle cells” value [5]?
Its value is “able to label the smooth muscle cells”.
